How the values were obtained:
[1] = Selectivity index, ratio of IC50 for cytotoxicity against African green monkey Vero cells to IC50 for antitrypanosomal activity against Trypanosoma brucei rhodesiense STI B900; assay type: toxicity, cell-based; settings: read-out: Ratio IC50
Vero = assay: Cytotoxicity against African green monkey Vero cells assessed as reduction in cell viability measured after 72 hrs by SRB assay; assay type: cell-based; settings: Chlorocebus sabaeus
[2] = system: Trypanosoma brucei rhodesiense; assay: Antitrypanosomal activity against Trypanosoma brucei rhodesiense STIB900 assessed as parasite growth inhibition measured after 72 hrs by alamar blue dye based spectrofluorimetric analysis; assay type: functional, organism-based; settings: STIB900, 72 h

SMILES | selectivity ratio [1] | IC50 (Vero) | IC50 [2]
CC1(C)N=C(N)N=C(N)N1OCCCOc1cc(Cl)c(Cl)cc1Cl | > 40 | > 10 µM | 0.25 µM
CN1Cc2ccc(OCc3ccccc3)cc2[C@@H](OCc2ccccc2)C1 | 8.4 | 23.5 µM | 2.8 µM
OC1CCCc2ccc(OCc3ccccc3)cc21 (stereo unspecified) | 0.6 | 39 µM | 65.9 µM
Oc1cccc2c1CNCC2O (stereo unspecified) | – | > 100 µM | > 100 µM
CN1Cc2ccc(OCCCn3ccnc3[N+](=O)[O-])cc2[C@@H](O)C1 | > 2.3 | > 50 µM | 21.7 µM
CN1Cc2ccc(OCc3ccc(Oc4ccc(F)cc4)cc3)cc2[C@@H](O)C1 | 2.1 | 5.6 µM | 2.7 µM
CN1CCc2cc(OCc3ccc(-c4ccccc4)cc3)ccc2C1 | 7.2 | 16.5 µM | 2.3 µM
COc1cccc2c1CN(C)C[C@@H]2O | – | > 100 µM | > 100 µM
CCN1Cc2ccc(O)cc2C(O)C1 (stereo unspecified) | – | > 100 µM | > 100 µM
CN1CCc2cc(OCc3ccccc3)ccc2C1 | > 22.7 | > 100 µM | 4.4 µM
CN1CCc2cc(Oc3ccccc3)ccc2C1 | > 5.7 | > 100 µM | 19.8 µM
COc1ccc(COc2ccc3c(c2)[C@@H](O)CN(C)C3)cc1 | > 2.9 | > 50 µM | 17.5 µM
CN1Cc2c(OCc3ccc(-c4ccccc4)cc3)cccc2[C@@H](O)C1 | > 16 | > 50 µM | 3.1 µM
OC1CN(Cc2ccccc2)Cc2ccc(OCc3ccc(-c4ccccc4)cc3)cc21 (stereo unspecified) | 5.5 | 14.8 µM | 2.7 µM
CN1Cc2ccc(O)cc2[C@@H](OCc2ccc(-c3ccccc3)cc2)C1 | > 7.8 | > 50 µM | 6.4 µM
OC1CNCc2c(OCc3ccc(-c4ccccc4)cc3)cccc21 (stereo unspecified) | 8 | 21.6 µM | 2.7 µM
CN1Cc2ccc(OCc3ccccc3)cc2[C@@H](O)C1 | > 3.9 | > 100 µM | 25.6 µM
CN1Cc2ccc(OCc3ccc(Oc4ccccc4)cc3)cc2[C@@H](O)C1 | 1.3 | 3.4 µM | 2.7 µM
Cc1ccccc1COc1ccc2c(c1)[C@@H](O)CN(C)C2 | > 4.8 | > 100 µM | 20.7 µM
CN1Cc2ccc(O)cc2[C@@H](OCCC2CCCCC2)C1 | > 2.6 | > 50 µM | 19.1 µM
Oc1ccc2c(c1)C(O)CNC2 (stereo unspecified) | – | > 100 µM | > 100 µM
CN1Cc2ccc(OCc3ccc(Br)cc3)cc2[C@@H](O)C1 | 14.8 | 37 µM | 2.5 µM
CN1Cc2ccc(OCCC3CCCCC3)cc2[C@@H](O)C1 | > 20 | > 50 µM | 2.5 µM
COc1cccc(-c2cccc(COc3ccc4c(c3)[C@@H](O)CN(C)C4)c2)c1 | 8.4 | 24.3 µM | 2.9 µM
CN1CCc2cc(-c3ccc(-c4ccccc4)cc3)ccc2C1 | 57.8 | 15.6 µM | 0.27 µM
CN(C)CCOc1ccc2c(c1)[C@@H](O)CN(C)C2 | – | > 50 µM | > 50 µM

SMILES | selectivity ratio [1] | IC50 (Vero) | IC50 [2]
OC1CN(Cc2ccccc2)Cc2ccc(OCc3ccccc3)cc21 (stereo unspecified) | 3.8 | 31.8 µM | 8.4 µM
CN1CCc2cc(OCCC3CCCCC3)ccc2C1 | 8.6 | 25 µM | 2.9 µM
OC1CNCc2ccc(OCc3cccc(Br)c3)cc21 (stereo unspecified) | 16.3 | 54.3 µM | 3.33 µM
CN1Cc2ccc(OCc3ccc(-c4ccc5ccccc5c4)cc3)cc2[C@@H](O)C1 | 1.3 | 0.31 µM | 0.24 µM
CN1Cc2ccc(OCc3ccc([N+](=O)[O-])cc3)cc2[C@@H](O)C1 | > 3 | > 50 µM | 16.9 µM
CN1Cc2ccc(OCc3cccc(Br)c3)cc2[C@@H](O)C1 | 27.4 | 60.3 µM | 2.2 µM
CN1Cc2ccc(OCCCN3CCOCC3)cc2[C@@H](O)C1 | > 1.8 | > 50 µM | 27.6 µM
CCCCCCCCCCCCOc1ccc2c(c1)[C@@H](O)CN(C)C2 | 7.6 | 18.3 µM | 2.4 µM
CN1Cc2ccc(O)cc2[C@@H](OCc2ccccc2)C1 | – | > 50 µM | > 50 µM
OC1CNCc2c(OCc3ccccc3)cccc21 (stereo unspecified) | > 1.9 | > 50 µM | 26.2 µM
CN1Cc2ccc(OCCCc3ccccc3)cc2[C@@H](O)C1 | > 2.7 | > 50 µM | 18.7 µM
CN1Cc2c(OCc3ccccc3)cccc2[C@@H](O)C1 | > 1.4 | > 100 µM | 69.8 µM
OC1CNCc2ccc(OCc3ccccc3)cc21 (stereo unspecified) | > 2.9 | > 50 µM | 17.4 µM
CN1Cc2ccc(OCCc3ccccc3)cc2[C@@H](O)C1 | > 2.8 | > 50 µM | 17.9 µM
CN1Cc2ccc(OCC3CCNCC3)cc2[C@@H](O)C1 | – | > 100 µM | > 100 µM
CN1Cc2ccc(OCCCn3cnc([N+](=O)[O-])c3)cc2[C@@H](O)C1 | – | > 50 µM | > 50 µM
CN1Cc2ccc(OCCCN3CCNCC3)cc2[C@@H](O)C1 | – | > 100 µM | > 100 µM
CCCN1Cc2ccc(O)cc2C(O)C1 (stereo unspecified) | – | > 100 µM | > 100 µM
CN1Cc2c(O)cccc2[C@@H](O)C1 | – | > 100 µM | > 100 µM
OC1CNCc2ccc(OCCC3CCCCC3)cc21 (stereo unspecified) | > 20 | > 50 µM | 2.5 µM
CN1Cc2ccc(OCc3cccc(-c4ccc(Cl)cc4)c3)cc2[C@@H](O)C1 | 9.4 | 27.3 µM | 2.9 µM
CN1Cc2ccc(OCc3ccc(-c4cccc(Cl)c4)cc3)cc2[C@@H](O)C1 | 9.1 | 25.5 µM | 2.8 µM
CCCCCCCCCCCC1c2ccc(O)cc2[C@@H](O)CN1C (stereo partly specified) | – | – | 0.39 µM
OC1CCCc2ccc(OCc3ccc(-c4ccccc4)cc3)cc21 (stereo unspecified) | – | > 100 µM | > 100 µM
CN1CCc2cc(OCCCN3CCOCC3)ccc2C1 | > 1.9 | > 50 µM | 25.9 µM
CN1Cc2ccc(OC(c3ccccc3)(c3ccccc3)c3ccccc3)cc2[C@@H](O)C1 | 4.2 | 87.9 µM | 20.8 µM

SMILES | selectivity ratio [1] | IC50 (Vero) | IC50 [2]
CN1CCc2cc(-c3ccc4ccccc4c3)ccc2C1 | 8.9 | 24.1 µM | 2.7 µM
COc1cccc(-c2ccc(COc3ccc4c(c3)[C@@H](O)CN(C)C4)cc2)c1 | 3.9 | 10.8 µM | 2.8 µM
OC1CNCc2ccc(OCc3ccc(-c4ccccc4)cc3)cc21 (stereo unspecified) | 83.2 | 20.8 µM | 0.25 µM
COCCOCOc1ccc2c(c1)[C@@H](O)CN(C)C2 | – | > 50 µM | > 50 µM
COc1ccc2c(c1)[C@@H](O)CN(C)C2 | – | > 100 µM | > 100 µM
Oc1ccc2c(c1)C(O)CCC2 (stereo unspecified) | – | > 100 µM | > 100 µM
Cc1cccc(COc2ccc3c(c2)[C@@H](O)CN(C)C3)c1 | > 2.5 | > 50 µM | 20.3 µM
Oc1ccc2c(c1)C(O)CN(Cc1ccccc1)C2 (stereo unspecified) | > 1.4 | > 100 µM | 70.5 µM
Cc1ccccc1COc1ccc2c(c1)C(O)CNC2 (stereo unspecified) | > 7.7 | > 25 µM | 3.26 µM
CN1Cc2ccc(O[Si](c3ccccc3)(c3ccccc3)C(C)(C)C)cc2[C@@H](O)C1 | 6.8 | 19.1 µM | 2.8 µM
CN1Cc2ccc(OCc3cccnc3)cc2[C@@H](O)C1 | – | > 50 µM | > 50 µM
CN1Cc2ccc(OCc3ccc(-c4ccccc4)cc3)cc2[C@@H](O)C1 | 7.9 | 23 µM | 2.9 µM
CN1Cc2ccc(OCC3CCCCC3)cc2[C@@H](O)C1 | 23.4 | 65.6 µM | 2.8 µM
Oc1ccc2c(c1)C(O)CN(Cc1ccc(-c3ccccc3)cc1)C2 (stereo unspecified) | > 9.3 | > 50 µM | 5.4 µM
CN1Cc2ccc(OCc3ccc(-c4ccccc4)cc3)cc2[C@@H](OCc2ccc(-c3ccccc3)cc2)C1 | > 3.6 | > 10 µM | 2.8 µM
CN1CCc2cc(-c3ccccc3)ccc2C1 | > 16.7 | > 50 µM | 3 µM
CN1Cc2ccc(OCCOc3ccccc3)cc2[C@@H](O)C1 | > 5.6 | > 100 µM | 17.9 µM
CN1CCc2cc(Oc3ccc(-c4ccccc4)cc3)ccc2C1 | 8.3 | 22.3 µM | 2.7 µM
CN1CCc2cc(O)ccc2C1 | – | > 100 µM | > 100 µM
CN1Cc2ccc(OCc3ccc(-c4ccc(Cl)cc4)cc3)cc2[C@@H](O)C1 | 77.5 | 21.7 µM | 0.28 µM
CN1Cc2c(OCCC3CCCCC3)cccc2[C@@H](O)C1 | 4.8 | 62.7 µM | 13 µM
CN1Cc2ccc(OCCC3CCCCC3)cc2[C@@H](OCCC2CCCCC2)C1 | 10.3 | 23.6 µM | 2.3 µM
CN1Cc2ccc(OCc3ccc(-c4ccc(-c5ccccc5)cc4)cc3)cc2[C@@H](O)C1 | 1 | 0.28 µM | 0.28 µM
CN1Cc2ccc(OCc3ccc(-c4ccc(F)cc4)cc3)cc2[C@@H](O)C1 | 24.1 | 33.8 µM | 1.4 µM
Cc1c2ccncc2c(C)c2c1[nH]c1ccccc12 [ELLIPTECINE] | – | 2.4 µM | –
N=C(N)c1ccc(OCCCCCOc2ccc(C(=N)N)cc2)cc1 [PENTAMIDINE] | – | – | 0.00707 µM

— ChEMBL document CHEMBL5032529, “Synthesis and evaluation of tetrahydroisoquinoline derivatives against Trypanosoma brucei rhodesiense” (Eur J Med Chem, 2021)
